Test results reported in the supplement of paper PMC10307832.

Key:
Assay in all cases: relative viability (nuclei count vs DMSO), 5 days (fraction); higher = more cells survive
Vemurafenib + Crizotinib = compound: CCCS(=O)(=O)Nc1ccc(F)c(C(=O)c2c[nH]c3ncc(-c4ccc(Cl)cc4)cc23)c1F [Vemurafenib] + C[C@@H](Oc1cc(-c2cnn(C3CCNCC3)c2)cnc1N)c1c(Cl)ccc(F)c1Cl [Crizotinib] (partner 1 µM)
Outline: (§1)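 Each reported value is a median over duplicate plates. It expresses relative viability: treated-well nuclei count divided by vehicle-well nuclei count. Lung cancer cell lines in 1536-well plates were dosed by pin tool a day after seeding, alone with one drug or with a fixed anchor-drug dose plus five library-drug doses (not always all listed) in √10 steps, and nuclei were counted after 5 days.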

OSI-027 + Bortezomib = compound: COc1cccc2cc(-c3nc([C@H]4CC[C@H](C(=O)O)CC4)n4ncnc(N)c34)[nH]c12 [OSI-027] + CC(C)C[C@H](NC(=O)[C@H](Cc1ccccc1)NC(=O)c1cnccn1)B(O)O [Bortezomib] (partner 0.002 µM)
Outline: as §1

OSI-027 + Tozasertib = compound: COc1cccc2cc(-c3nc([C@H]4CC[C@H](C(=O)O)CC4)n4ncnc(N)c34)[nH]c12 [OSI-027] + Cc1cc(Nc2cc(N3CCN(C)CC3)nc(Sc3ccc(NC(=O)C4CC4)cc3)n2)n[nH]1 [Tozasertib] (partner 0.1 µM)
Outline: as §1

OSI-027 + Pemetrexed = compound: COc1cccc2cc(-c3nc([C@H]4CC[C@H](C(=O)O)CC4)n4ncnc(N)c34)[nH]c12 [OSI-027] + Nc1nc2[nH]cc(CCc3ccc(C(=O)N[C@@H](CCC(=O)O)C(=O)O)cc3)c2c(=O)[nH]1 [Pemetrexed] (partner 0.2 µM)
Outline: as §1

Cell Line	relative viability (Vemurafenib + Crizotinib; first compound 0.03162 µM)	relative viability (Vemurafenib + Crizotinib; first compound 0.1 µM)	relative viability (Vemurafenib + Crizotinib; first compound 0.3162 µM)	relative viability (Vemurafenib + Crizotinib; first compound 1 µM)	relative viability (OSI-027 + Bortezomib; first compound 0.01 µM)	relative viability (OSI-027 + Bortezomib; first compound 0.03162 µM)	relative viability (OSI-027 + Bortezomib; first compound 0.1 µM)	relative viability (OSI-027 + Bortezomib; first compound 0.3162 µM)	relative viability (OSI-027 + Bortezomib; first compound 1 µM)	relative viability (OSI-027 + Tozasertib; first compound 0.01 µM)	relative viability (OSI-027 + Tozasertib; first compound 0.03162 µM)	relative viability (OSI-027 + Tozasertib; first compound 0.1 µM)	relative viability (OSI-027 + Tozasertib; first compound 0.3162 µM)	relative viability (OSI-027 + Tozasertib; first compound 1 µM)	relative viability (OSI-027 + Pemetrexed; first compound 0.01 µM)	relative viability (OSI-027 + Pemetrexed; first compound 0.03162 µM)	relative viability (OSI-027 + Pemetrexed; first compound 0.1 µM)	relative viability (OSI-027 + Pemetrexed; first compound 0.3162 µM)	relative viability (OSI-027 + Pemetrexed; first compound 1 µM)
NCI-H2347	0.655	0.657	0.397	0.69	0.857	0.904	0.741	0.601	0.493	0.362	0.467	0.58	0.564	0.317	0.438	0.439	0.484	0.404	0.427
NCI-H1975	0.955	0.926	0.837	1.02	0.41	0.337	0.464	0.318	0.274	1	0.778	0.746	0.66	0.478	0.336	0.275	0.292	0.303	0.259
HCC-15	0.75	0.803	0.699	0.81	1.07	0.988	1	1.01	0.71	0.458	0.4	0.429	0.414	0.266	0.221	0.239	0.211	0.227	0.231
COR-L23	0.6	0.524	0.597	0.59	1.16	0.923	1.07	1.13	0.298	0.18	0.185	0.237	0.287	0.19	0.194	0.194	0.193	0.181	0.197
